Results on 36 molecules are retold here after US10233186B2, “Inhibitors of activin receptor-like kinase” (BLUEPRINT MEDICINES CORPORATION, priority 2016, dated 2019).

Experiment [1] has as its target T1, ALK2 R206H (GST-tagged mutant ALK2) (Homo sapiens, UniProt Q04771, R206H).
T1 construct: purchased Carna Bioscience or ThermoFisher 09-148 or PV6232
T1 sequence (Q04771 21-509 R206H): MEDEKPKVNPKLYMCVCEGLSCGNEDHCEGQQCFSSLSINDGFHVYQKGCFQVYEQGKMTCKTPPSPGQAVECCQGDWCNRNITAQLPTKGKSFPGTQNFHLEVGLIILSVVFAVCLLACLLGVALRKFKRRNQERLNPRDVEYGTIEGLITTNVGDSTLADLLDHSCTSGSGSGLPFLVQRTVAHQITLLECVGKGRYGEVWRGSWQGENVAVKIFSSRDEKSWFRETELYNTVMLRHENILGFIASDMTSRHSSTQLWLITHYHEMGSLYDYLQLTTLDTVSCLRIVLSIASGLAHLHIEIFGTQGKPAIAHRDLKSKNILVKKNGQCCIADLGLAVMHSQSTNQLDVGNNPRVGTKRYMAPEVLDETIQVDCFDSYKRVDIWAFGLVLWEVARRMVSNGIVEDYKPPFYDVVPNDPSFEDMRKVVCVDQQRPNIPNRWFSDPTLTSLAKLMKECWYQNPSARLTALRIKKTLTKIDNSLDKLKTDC
Description: ALK binding assay (LANTHASCREEN TR-FRET competitive binding, displacement of Kinase Tracer 178). In general terms: Time-resolved FRET reads energy transfer from a long-lived donor to a nearby acceptor.

The target in experiment [2] is T2, human ALK2 R206H (Homo sapiens, UniProt Q04771, R206H).
T2 construct: expressed in transfected cells; host or cells: HEK293 (ATCC CRL1573), lentivirus transduction, blasticidin selection
T2 sequence (Q04771 21-509 R206H): T1 sequence (Q04771 21-509 R206H)
Description: Cell-based ALK2-R206H cell activity assay (Smad1-Ser463/Ser465 phosphorylation by AlphaLISA in HEK293-ALK2-R206H cells). Summed up:
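Stable HEK293 cells expressing C-terminally FLAG-tagged human ALK2 R206H (lentiviral, blasticidin-selected) were treated with compounds in 10-point, 3-fold dilutions from 10 μM or 1 μM top, in duplicate. Smad1 Ser463/Ser465 phosphorylation was read by AlphaLISA.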
(In Alpha technology, singlet oxygen from a donor bead excites a nearby acceptor bead.)

Setting [3] is: ALK2 R206H, LANTHASCREEN TR-FRET competitive binding, read-out: Binding Assay (IC50).
[4] abbreviates: read-out: Cell Line (Cell Assay IC50).

Where two headings read alike, the source gives them in different places.

One may read the IC50 as the midpoint of a concentration-inhibition curve. Take `COC1(c2ccc(-c3cc4c(N5CCN(C(=O)NC(C)C)CC5)ccnn4c3)nc2)CCNCC1` [Compound 785]: the values for the IC50 in experiment [1] (setting [3]) and in experiment [2] (setting [4]) were below 10 nM and 100 to 500 nM, respectively.

As to `CO[C@@]1(c2ccc(-c3cc4c(N5CCN(C(=O)NC(C)C)CC5)ccnn4c3)nc2)CCCNC1` [Compound 786], the IC50 in experiment [1] (setting [3]) was below 10 nM; in experiment [2] (setting [4]), below 100 nM.

`CCOC(=O)N1CCN(c2ccnn3cc(-c4ccc([C@]5(OCC)CCCNC5)cn4)cc23)CC1` [Compound 787]: the values for the IC50 in experiment [1] (setting [3]) and in experiment [2] (setting [4]) were below 10 nM and below 100 nM, respectively.

As for `CCOC(=O)N1CCN(c2ccnn3cc(-c4ccc([C@@]5(OCC)CCCNC5)cn4)cc23)CC1` [Compound 788], the IC50 in experiment [1] (setting [3]) was below 10 nM; in experiment [2] (setting [4]) it was below 100 nM.

In the case of `O=C(OC(CO)CO)N1CCN(c2ccnn3cc(-c4ccc(C5CCNCC5)cc4)cc23)CC1` [Compound 789, 1,3-dihydroxypropan-2-yl 4-(6-(4-(piperidin-4-yl)phenyl)pyrrolo[1,2-b]pyridazin-4-yl)piperazine-1-carboxylate], the IC50 is below 10 nM in experiment [1] (setting [3]) and above 500 nM in experiment [2] (setting [4]).

In the case of `CC(C)N[C@H](CO)c1ccc(-c2cc3c(N4CCN(C(=O)OC5COC5)CC4)ccnn3c2)cc1` [Compound 791], the figures for the IC50 in experiment [1] (setting [3]) and in experiment [2] (setting [4]) were below 10 nM and below 100 nM, respectively.

As to `CC(C)N[C@@H](CO)c1ccc(-c2cc3c(N4CCN(C(=O)OC5COC5)CC4)ccnn3c2)cc1` [Compound 792], the figures for the half-inhibitory concentration (IC50) in experiment [1] (setting [3]) and in experiment [2] (setting [4]) were below 10 nM and below 100 nM, respectively.

As for `[2H]C([2H])([2H])C([2H])([2H])OC(=O)N1CCN(c2ccnn3cc(-c4ccc([C@@]5(OCC)CCCNC5)cn4)cc23)CC1` [Compound 793], the IC50 in experiment [1] (setting [3]) is below 10 nM; in experiment [2] (setting [4]), below 100 nM.

For the molecule `[2H]C([2H])([2H])C([2H])([2H])OC(=O)N1CCN(c2ccnn3cc(-c4ccc([C@]5(OCC)CCCNC5)cn4)cc23)CC1` [Compound 794], the IC50 in experiment [1] (setting [3]) was below 10 nM; in experiment [2] (setting [4]) it was below 100 nM.

On to `CC(C)N1CCC(c2ccc(-c3cc4c(N5CCN(C(=O)OC6CC6)CC5)ccnn4c3)cc2)CC1` [Compound 795], for which the IC50 is below 10 nM in experiment [1] (setting [3]) and below 100 nM in experiment [2] (setting [4]).

As to `CCOC(=O)N1CCN(c2ccnn3cc(-c4ccc([C@]5(OC)CCCNC5)cn4)cc23)CC1` [Compound 796], the half-maximal inhibitory concentration (IC50) in experiment [1] (setting [3]) is below 10 nM; in experiment [2] (setting [4]) it was below 100 nM.

As to `CCO[C@@]1(c2ccc(-c3cc4c(N5CCN(C(=O)NC(C)C)CC5)ccnn4c3)nc2)CCCNC1` [Compound 797], the values for the IC50 in experiment [1] (setting [3]) and in experiment [2] (setting [4]) were below 10 nM and below 100 nM, respectively.

Turning to `CCO[C@]1(c2ccc(-c3cc4c(N5CCN(C(=O)NC(C)C)CC5)ccnn4c3)nc2)CCCNC1` [Compound 798], the IC50 was below 10 nM in experiment [1] (setting [3]) and below 100 nM in experiment [2] (setting [4]).

`COC1(c2ccc(-c3cc4c(N5CCN(C(=O)OC6COC6)CC5)ccnn4c3)cc2)CCOCC1` [Compound 799]: the results for the IC50 in experiment [1] (setting [3]) and in experiment [2] (setting [4]) were below 10 nM and below 100 nM, respectively.

As to `CO[C@]1(c2ccc(-c3cc4c(N5CCN(C(=O)OC6COC6)CC5)ccnn4c3)nc2)CCCNC1` [Compound 800], the IC50 was below 10 nM in experiment [1] (setting [3]) and below 100 nM in experiment [2] (setting [4]).

As for `CO[C@@]1(c2ccc(-c3cc4c(N5CCN(C(=O)OC6COC6)CC5)ccnn4c3)nc2)CCCNC1` [Compound 801], the IC50 is below 10 nM in experiment [1] (setting [3]) and below 100 nM in experiment [2] (setting [4]).

With `CCOC(=O)N1CCN(c2ccnn3cc(-c4ccc(C5(OC)CCNC(C)(C)C5)cn4)cc23)CC1` (stereo not drawn) [Compound 802], the half-inhibitory concentration (IC50) is below 10 nM in experiment [1] (setting [3]) and below 100 nM in experiment [2] (setting [4]).

`CC(C)NC(C)(CO)c1ccc(-c2cc3c(N4CCN(C(=O)OC5COC5)CC4)ccnn3c2)cc1` (stereo not drawn) [Compound 804]: the figures for the IC50 in experiment [1] (setting [3]) and in experiment [2] (setting [4]) were below 10 nM and below 100 nM, respectively.

As to `CCN(CC)[C@@H](CO)c1ccc(-c2cc3c(N4CCN(C(=O)OC5COC5)CC4)ccnn3c2)cc1` [Compound 805], the figures for the IC50 in experiment [1] (setting [3]) and in experiment [2] (setting [4]) were below 10 nM and below 100 nM, respectively.

For the molecule `O=C(C1CC1)N1CCN(c2ccnn3cc(-c4ccc(C5(C(F)(F)F)CCNCC5)cc4)cc23)CC1` [Compound 808], the IC50 is below 10 nM in experiment [1] (setting [3]) and below 100 nM in experiment [2] (setting [4]).

As to `CO[C@@]1(c2ccc(-c3cc4c(N5CCN(C(=O)[C@H]6C[C@H](C#N)C6)CC5)ccnn4c3)cc2)CCCNC1` [Compound 809], the 50% inhibitory concentration (IC50) in experiment [1] (setting [3]) was below 10 nM; in experiment [2] (setting [4]), below 100 nM.

Turning to `CC(C)N1CCC[C@@H](c2ccc(-c3cc4c(N5CCN(C(=O)OCCC#N)CC5)ccnn4c3)cc2)C1` [Compound 810], the half-maximal inhibitory concentration (IC50) was below 10 nM in experiment [1] (setting [3]) and below 100 nM in experiment [2] (setting [4]).

`CC(C)N1CCC(CO)(c2ccc(-c3cc4c(N5CCN(C(=O)C6CC6)CC5)ccnn4c3)cc2)CC1` [Compound 811]: the values for the IC50 in experiment [1] (setting [3]) and in experiment [2] (setting [4]) were below 10 nM and below 100 nM, respectively.

Take `CC(C)N1CCC(c2ccc(-c3cc4c(N5CCN(C(=O)C6CCOC6)CC5)ccnn4c3)cc2)CC1` (stereo not drawn) [Compound 812]: the IC50 in experiment [1] (setting [3]) is below 10 nM; in experiment [2] (setting [4]), 100 to 500 nM.

On to `CC1(C)CC(O)(c2ccc(-c3cc4c(N5CCN(C(=O)C6CC6)CC5)ccnn4c3)cc2)CC(C)(C)N1` [Compound 813], for which the 50% inhibitory concentration (IC50) in experiment [1] is below 10 nM; in experiment [2] (Cell Line (Cell Assay IC50)), below 100 nM.

For the molecule `[2H]C1(OC(=O)N2CCN(c3ccnn4cc(-c5ccc(C6CCN(C(C)C)CC6)cc5)cc34)CC2)COC1` [Compound 814], the values for the IC50 in experiment [1] (setting [3]) and in experiment [2] (setting [4]) were below 10 nM and below 100 nM, respectively.

Regarding `CCO[C@]1(c2ccc(-c3cc4c(N5CCN(C(=O)OC6COC6)CC5)ccnn4c3)cc2)CCCNC1` [Compound 815], the results for the IC50 in experiment [1] (setting [3]) and in experiment [2] (setting [4]) were below 10 nM and below 100 nM, respectively.

`CCO[C@@]1(c2ccc(-c3cc4c(N5CCN(C(=O)OC6COC6)CC5)ccnn4c3)cc2)CCCNC1` [Compound 816]: the IC50 was below 10 nM in experiment [1] (setting [3]) and below 100 nM in experiment [2] (setting [4]).

With `COC1(c2ccc(-c3cc4c(N5CCN(C(=O)NC(C)C)CC5)ccnn4c3)nc2)CCNC(C)(C)C1` (stereo not drawn) [Compound 817], the IC50 in experiment [1] (setting [3]) was below 10 nM; in experiment [2] (setting [4]), below 100 nM.

For `CCO[C@]1(c2ccc(-c3cc4c(N5CCN(C(=O)OC6COC6)CC5)ccnn4c3)nc2)CCCNC1` [Compound 818], the IC50 in experiment [1] (setting [3]) is below 10 nM; in experiment [2] (setting [4]) it was below 100 nM.

As for `CCO[C@@]1(c2ccc(-c3cc4c(N5CCN(C(=O)OC6COC6)CC5)ccnn4c3)nc2)CCCNC1` [Compound 819], the IC50 is below 10 nM in experiment [1] (setting [3]) and below 100 nM in experiment [2] (setting [4]).

`CCOC(=O)N1CCN(c2ccnn3cc(-c4ccc(C5(OC)CCN(C(C)C)CC5)cn4)cc23)CC1` [Compound 820]: the IC50 in experiment [1] (setting [3]) is below 10 nM; in experiment [2] (setting [4]) it was below 100 nM.

For `CCOC1(c2ccc(-c3cc4c(N5CCN(C(=O)OC6COC6)CC5)ccnn4c3)nc2)CCOCC1` [Compound 821], the results for the IC50 in experiment [1] (setting [3]) and in experiment [2] (setting [4]) were below 10 nM and below 100 nM, respectively.

As to `CC(C)NC(=O)N1CCN(c2ccnn3cc(-c4ccc(C5(C(F)(F)F)CCNCC5)cc4)cc23)CC1` [Compound 823], the IC50 in experiment [1] (setting [3]) was below 10 nM; in experiment [2] (setting [4]) it was below 100 nM.

Turning to `COCC1(c2ccc(-c3cc4c(N5CCN(C(=O)C6CC6)CC5)ccnn4c3)cc2)CCN(C(C)C)CC1` [Compound 824], the IC50 is below 10 nM in experiment [1] (setting [3]) and below 100 nM in experiment [2] (setting [4]).

As to `CC(C)N1CCC[C@@H](c2ccc(-c3cc4c(N5CCN(C(=O)O[C@@H]6CCOC6)CC5)ccnn4c3)cc2)C1` [Compound 825], the results for the IC50 in experiment [1] (setting [3]) and in experiment [2] (setting [4]) were below 10 nM and 100 to 500 nM, respectively.
